Data taken from patent US5880256A, “Factor VIIa inhibitors from Kunitz domain proteins” (Genentech, Inc., priority 1995, dated 1999).
Positions of bridges follow the written chain, without caps; N, C: chain ends. No end group written: not given here.

Columns and labels:
[1] = test system: New Zealand white rabbits; assay: Cuticle bleeding time in the rabbit model; assay type: in vivo; conditions: for bleeding compared to the saline control (in words): after 10 minutes
Protocol: Male New Zealand white rabbits (~4 kg) were anesthetized to surgical anesthesia plane with an IM injection of Ketamine / Xylaxine. The rabbits were placed supine on a restraining board, warmed to 37° C., and the neck and inner thigh area shaved. Teflon catheters were replaced in a marginal ear vein and femoral artery for drug delivery and sample collection respectively. Prior to treatment, blood samples were collected for coagulation tests (APTT and PT). Bleeding time was assessed from a cut made in the cuticle portion of a hind limb nail. Incisions were made in the neck region and the entire left common carotid artery and its branches were surgically isolated. An ultrasonic flow probe (Transonics®) was placed on the common carotid approximately 5 cm caudal to the common--internal bifurcation. After blood flow reached a stable baseline, drugs (saline or test compounds) were delivered via the marginal ear vein. A deflated embolectomy catheter (Fogarty®, 3F) was then introduced into the lumen of the common via an incision in the lingual branch. Blood flow through the artery was stopped briefly while the catheter was introduced and loosely secured with 2-0 silk tie at the incision site. After the catheter was in place and secure, blood flow was restored. The deflated balloon was advanced to within 2 mm of the flow probe and inflated with saline until resistance of the vessel wall was felt. The catheter was pulled back with a steady motion to the first branch and then deflated. This procedure was repeated a total of six times for each experimental animal, after which the catheter was removed. […] Over 40 minutes, blood samples were taken for APTT and PT measurements, cuticle bleeding times were assessed and blood flow through the carotid monitored. Duration of patency was defined as the total amount of time (maximum=40 minutes) that any measurable blood flow is detected in the artery. Patency rate refers to the percentage of animals tested who had carotid artery blood flow≥5 minutes. […] If any thrombus was present, it was removed, blotted and the weight recorded. […]

normal human plasma = assay: Activated partial thromboplastin time (APTT) assay, initiated by ellagic acid; assay type: biochemical
Protocol: For the activated partial thromboplastin time (APTT) assays, the activation time was set at 120 sec and acquisition time at 300 to 600 sec depending on the expected outcome of the assay. Citrated normal human plasma and inhibitor were incubated together. The sample (plasma and inhibitor) and activator (Instrumentation Laboratories Ellagic acid/Phospholipid mix Test Reagent) were automatically pipetted and incubated together for 2 min at 37° C., then CaCl2 was added and clotting time determined by means of optical assessment. The total incubation time of inhibitor with plasma was ca. 3 min before addition of activator, and 5 min before addition of CaCl2.

[2] = test system: New Zealand white rabbits; assay: Rabbit deep medial injury model (carotid artery patency, thrombus weight); assay type: in vivo
Protocol: Male New Zealand white rabbits (~4 kg) were anesthetized to surgical anesthesia plane with an IM injection of Ketamine / Xylaxine. The rabbits were placed supine on a restraining board, warmed to 37° C., and the neck and inner thigh area shaved. Teflon catheters were replaced in a marginal ear vein and femoral artery for drug delivery and sample collection respectively. Prior to treatment, blood samples were collected for coagulation tests (APTT and PT). Bleeding time was assessed from a cut made in the cuticle portion of a hind limb nail. Incisions were made in the neck region and the entire left common carotid artery and its branches were surgically isolated. An ultrasonic flow probe (Transonics®) was placed on the common carotid approximately 5 cm caudal to the common--internal bifurcation. After blood flow reached a stable baseline, drugs (saline or test compounds) were delivered via the marginal ear vein. A deflated embolectomy catheter (Fogarty®, 3F) was then introduced into the lumen of the common via an incision in the lingual branch. Blood flow through the artery was stopped briefly while the catheter was introduced and loosely secured with 2-0 silk tie at the incision site. After the catheter was in place and secure, blood flow was restored. The deflated balloon was advanced to within 2 mm of the flow probe and inflated with saline until resistance of the vessel wall was felt. The catheter was pulled back with a steady motion to the first branch and then deflated. This procedure was repeated a total of six times for each experimental animal, after which the catheter was removed. […] Over 40 minutes, blood samples were taken for APTT and PT measurements, cuticle bleeding times were assessed and blood flow through the carotid monitored. Duration of patency was defined as the total amount of time (maximum=40 minutes) that any measurable blood flow is detected in the artery. Patency rate refers to the percentage of animals tested who had carotid artery blood flow≥5 minutes. At the end of the experiment the rabbit was euthanized and the carotid artery removed and opened. If any thrombus was present, it was removed, blotted and the weight recorded.
[Heparin was dosed as a 25 u/kg bolus followed by a continuous infusion of 1) 0.5 u/kg/min or 2) 1 u/kg/min. Other reagents were given as a 2 mg/kg IV bolus. With the exception of the patency data, values are expressed as means ±sem.]

For CC[C@H](C)[C@@H]1NC(=O)[C@H](CC(C)C)NC(=O)[C@H](C)NC(=O)[C@H](CCCNC(=N)N)NC(=O)[C@@H]2CSSC[C@@H]3NC(=O)CNC(=O)CNC(=O)[C@H](Cc4ccc(O)cc4)NC(=O)[C@H](Cc4ccccc4)NC(=O)[C@H](Cc4ccccc4)NC(=O)[C@@H]4CCCN4C(=O)[C@H](C)NC(=O)[C@H](CSSC[C@H](NC(=O)[C@H](Cc4ccc(O)cc4)NC(=O)[C@H](CCC(=O)O)NC(=O)[C@H](CCC(=O)O)NC(=O)[C@H]([C@@H](C)O)NC(=O)[C@H](CC(=O)O)NC(=O)[C@H](Cc4ccccc4)NC(=O)[C@H](CC(N)=O)NC(=O)[C@H](CC(N)=O)NC(=O)[C@H](CCCNC(=N)N)NC(=O)[C@H](CC(N)=O)NC(=O)CNC(=O)[C@H](Cc4ccc(O)cc4)NC3=O)C(=O)N[C@@H](C)C(=O)N[C@@H](C)C(=O)N[C@@H](C(C)C)C(=O)N[C@H](C(=O)NCC(=O)N[C@@H](CO)C(=O)N[C@@H](C)C(=O)O)CSSC[C@H](NC(=O)[C@@H](NC(=O)[C@H](CCC(=O)O)NC(=O)[C@H](CCCNC(=N)N)NC(=O)[C@@H](N)C(C)C)C(C)C)C(=O)N[C@@H](CO)C(=O)N[C@@H](CCC(=O)O)C(=O)N[C@@H](CCC(N)=O)C(=O)N[C@@H](C)C(=O)N[C@@H](CCC(=O)O)C(=O)N3CCC[C@H]3C(=O)NCC(=O)N3CCC[C@H]3C(=O)N2)NC(=O)[C@H](CCCCN)NC(=O)CNC(=O)[C@H](CCC(=O)O)NC(=O)[C@H]([C@@H](C)O)NC(=O)[C@H](C(C)C)NC(=O)[C@H](CC(=O)O)NC(=O)[C@H](Cc2ccccc2)NC(=O)[C@H](Cc2ccc(O)cc2)NC(=O)[C@H](Cc2c[nH]c3ccccc23)NC(=O)[C@H](CCCNC(=N)N)NC(=O)[C@H](CC(C)C)NC1=O [TF7I-C], the “bleeding compared to the saline control (in words)” value [1] was “did not induce prolonged bleeding”.
For “APPI: Alzheimer's amyloid β-protein precursor inhibitor, 58 residue Kunitz domain, wild type (SEQ ID NO: 34) (VREVCSEQAETGPCRAMISRWYFDVTEGKCAPFFYGGCGGNRNNFDTEEYCMAVCGSA)”, the “APTT clotting time, fold prolongation” value (normal human plasma; 40 μM inhibitor, uninhibited clotting time 31 s) was 3.6 fold, the “APTT clotting time, fold prolongation” value (normal human plasma; ca. 7 μM inhibitor) was “ca. 3 fold” and the “Cuticle bleeding time, fold increase over pre dose” value ([1]; in vivo, iv, 2 mg/kg) was 2.2 ± 0.6 fold. The “Patency (%)” value ([2]; rabbit, 2 mg/kg IV bolus, animals with carotid blood flow ≥5 minutes) was 40%, the “Patency Duration” value ([2]; rabbit, 2 mg/kg IV bolus, maximum 40 minutes, mean ± sem) was 13.4 ± 8.5 min and the “Clot (mgs)” value ([2]; rabbit, 2 mg/kg IV bolus, thrombus weight, mean ± sem) was 49.5 ± 18.2 mgs.
In the case of “VREVCSEQAEPGPCRAMMKRWYFDVTEGKCAPFIYGGCYGNRNNFDTEEYCAAVCGSA (disulfide 5-55, 14-38, 30-51) [IV-49C]”, the “bleeding compared to the saline control (in words)” value [1] is reported as “did not induce prolonged bleeding”.
With Heparin the “patency and clot size compared to the saline control (in words)” value ([2]; rabbit deep medial injury model) was “significantly prolonged patency and reduced clot size”, the “Patency (%)” value ([2]; rabbit, Heparin 1: 25 u/kg bolus then 0.5 u/kg/min infusion) was 67% and the “Patency Duration” value ([2]; rabbit, Heparin 1: 25 u/kg bolus then 0.5 u/kg/min infusion, mean ± sem) was 23.3 ± 6.7 min. For the same compound, the “Patency (%)” value ([2]; rabbit, Heparin 2: 25 u/kg bolus then 1 u/kg/min infusion) was 100% and the “Patency Duration” value ([2]; rabbit, Heparin 2: 25 u/kg bolus then 1 u/kg/min infusion, mean ± sem) was 35.2 ± 2.2 min.
